Reference: US20240245673A1, “Papain-like protease (PLpro) inhibitors” (Pfizer Inc., priority 2022, published 2024)
Like-named read-outs stand apart in the source and are kept apart here.

Target: SARS-CoV-2 Papain like protease (PLpro) (Severe acute respiratory syndrome coronavirus 2 (2019-nCoV) (SARS-CoV-2), UniProt P0DTD1)
Experiment: Papain Like Protease (PLpro) biochemical assay with profluorogenic substrate Z-RLRGG-AMC
Details: SARS-CoV-2 PLpro 6.25 nM, 25 μM Z-RLRGG-AMC substrate, 60 minute reaction

SMILES	IC50 (read-out: IC50)	IC50 (IC50 (μM))
Cc1ccc(CN)cc1C(=O)NC(C)c1cc(-n2cnnc2C(N)=O)nc2ccccc12 (stereo not drawn) [Example 33, 4-(4-(1-(5-(aminomethyl)-2-methylbenzamido)ethyl)quinolin-2-yl)-4H-1,2,4-triazole-3-carboxamide]	1.36 µM	–
Cc1ccc(CN)cc1C(=O)NC(C)c1cc(N2CCCC2=O)nc2ccccc12 (stereo not drawn) [Example 34, 5-(aminomethyl)-2-methyl-N-(1-(2-(2-oxopyrrolidin-1-yl)quinolin-4-yl)ethyl)benzamide]	1.45 µM	–
Cc1ccc(CN)cc1C(=O)NC(C)c1cc(-n2ccc(C#N)n2)nc2ccccc12 (stereo not drawn) [Example 35, 5-(aminomethyl)-N-(1-(2-(3-cyano-1H-pyrazol-1-yl)quinolin-4-yl)ethyl)-2-methylbenzamide]	1.48 µM	–
Cc1ccc(CN)cc1C(=O)NC(C)c1cc(-n2ccnc2)nc2ccccc12 (stereo not drawn) [Example 36, N-(1-(2-(1H-imidazol-1-yl)quinolin-4-yl)ethyl)-5-(aminomethyl)-2-methylbenzamide]	–	0.21 µM
Cc1ccccc1C(=O)N[C@H](C)c1cc(NC2COC2)nc2ccccc12 [Example 37, (R)-2-methyl-N-(1-(2-(oxetan-3-ylamino)quinolin-4-yl)ethyl)benzamide]	10 µM	–
Cc1ccccc1C(=O)N[C@H](C)c1cc(Nc2ccn(C)n2)nc2ccccc12 [Example 38, (R)-2-methyl-N-(1-(2-((1-methyl-1H-pyrazol-3-yl)amino)quinolin-4-yl)ethyl)benzamide]	1.63 µM	–
Cc1ccccc1C(=O)N[C@H](C)c1cc(N)nc2ccccc12 [Example 39, (R)-N-(1-(2-aminoquinolin-4-yl)ethyl)-2-methylbenzamide]	0.861 µM	–
CC(=O)Nc1cc([C@@H](C)NC(=O)c2ccccc2C)c2ccccc2n1 [Example 40, (R)—N-(1-(2-acetamidoquinolin-4-yl)ethyl)-2-methylbenzamide]	3.16 µM	–
CNc1cc([C@@H](C)NC(=O)c2ccccc2C)c2ccccc2n1 [Example 41, (R)-2-methyl-N-(1-(2-(methylamino)quinolin-4-yl)ethyl)benzamide]	1.01 µM	–
Cc1ccccc1C(=O)N[C@H](C)c1cc(N(C)C)nc2ccccc12 [Example 42, (R)-N-(1-(2-(dimethylamino)quinolin-4-yl)ethyl)-2-methylbenzamide]	2.17 µM	–
Cc1ccccc1C(=O)N[C@H](C)c1cc(OCC2CCOC2)nc2ccccc12 (stereo partly drawn) [Example 43, 2-methyl-N-((1R)-1-(2-((tetrahydrofuran-3-yl)methoxy)quinolin-4-yl)ethyl)benzamide]	3.08 µM	–
Cc1ccccc1C(=O)N[C@H](C)c1cc(OCC2COC2)nc2ccccc12 [Example 44, (R)-2-methyl-N-(1-(2-(oxetan-3-ylmethoxy)quinolin-4-yl)ethyl)benzamide]	3.97 µM	–
Cc1ccccc1C(=O)N[C@H](C)c1cc(OCCO)nc2ccccc12 [Example 45, (R)-N-(1-(2-(2-hydroxyethoxy)quinolin-4-yl)ethyl)-2-methylbenzamide]	3.48 µM	–
Cc1ccccc1C(=O)N[C@H](C)c1cc(OC2CCOC2)nc2ccccc12 (stereo partly drawn) [Example 46, 2-methyl-N-((1R)-1-(2-((tetrahydrofuran-3-yl)oxy)quinolin-4-yl)ethyl)benzamide]	3.62 µM	–
COCCOc1cc([C@@H](C)NC(=O)c2ccccc2C)c2ccccc2n1 [Example 47, (R)-N-(1-(2-(2-methoxyethoxy)quinolin-4-yl)ethyl)-2-methylbenzamide]	3.13 µM	–
Cc1ccccc1C(=O)N[C@H](C)c1cc(-c2ccn[nH]2)nc2ccccc12 [Example 48, (R)—N-(1-(2-(1H-pyrazol-5-yl)quinolin-4-yl)ethyl)-2-methylbenzamide]	0.28 µM	–
Cc1ccccc1C(=O)N[C@H](C)c1cc(-c2cnn(C)c2)nc2ccccc12 [Example 49, (R)-2-methyl-N-(1-(2-(1-methyl-1H-pyrazol-4-yl)quinolin-4-yl)ethyl)benzamide]	0.151 µM	–
Cc1ccccc1C(=O)N[C@H](C)c1cc(-c2ccnn2C)nc2ccccc12 [Example 50, (R)-2-methyl-N-(1-(2-(1-methyl-1H-pyrazol-5-yl)quinolin-4-yl)ethyl)benzamide]	0.489 µM	–
Cc1ccc(NC(=O)[C@H]2CCCCN2)cc1C(=O)NC(C)c1cc(-c2cn[nH]c2)cc2ccccc12 (stereo partly drawn) [Example 51, (2R)—N-(3-((1-(3-(1H-pyrazol-4-yl)naphthalen-1-yl)ethyl)carbamoyl)-4-methylphenyl)piperidine-2-carboxamide]	0.019 µM	–
Cc1cc(CNC(=O)c2cscn2)ccc1C(=O)NC(C)c1cc(-c2cnn(C)c2)cc2ccccc12 (stereo not drawn) [Example 54, N-(3-methyl-4-((1-(3-(1-methyl-1H-pyrazol-4-yl)naphthalen-1-yl)ethyl)carbamoyl)benzyl)thiazole-4-carboxamide]	0.028 µM	–

SMILES	IC50 (read-out: IC50)	IC50 (IC50 (μM))
Cc1ccc(N2CCNCC2)cc1C(=O)N[C@H](C)c1cc(-c2cnn(C)c2)nc2ccccc12 [Example 55, (R)-2-methyl-N-(1-(2-(1-methyl-1H-pyrazol-4-yl)quinolin-4-yl)ethyl)-5-(piperazin-1-yl)benzamide]	0.018 µM	–
Cc1ccc(CN)cc1C(=O)N[C@H](C)c1cc(-c2cc(C(=O)N(C)C)c[nH]2)nc2ccccc12 [Example 56, 5-{4-[(1R)-1-{[5-(aminomethyl)-2-methylphenyl]formamido}ethyl]quinolin-2-yl}-N,N-dimethyl-1H-pyrrole-3-carboxamide]	0.02 µM	–
CNCc1ccc(C)c(C(=O)N[C@H](C)c2cc(-c3cc(C(=O)OC)c[nH]3)nc3ccccc23)c1 [Example 57, methyl (R)-5-(4-(1-(2-methyl-5-((methylamino)methyl)benzamido)ethyl)quinolin-2-yl)-1H-pyrrole-3-carboxylate]	0.013 µM	–
Cc1ccccc1C(=O)N[C@H](C)c1cc(-c2cnoc2)nc2ccccc12 [Example 58, (R)-N-(1-(2-(isoxazol-4-yl)quinolin-4-yl)ethyl)-2-methylbenzamide]	100 µM	–
Cc1ccc(N2CCNCC2)cc1C(=O)NC(C)c1cc(-c2cnn(C)c2)cc2ccccc12 (stereo not drawn) [Example 59, 2-methyl-N-(1-(3-(1-methyl-1H-pyrazol-4-yl)naphthalen-1-yl)ethyl)-5-(piperazin-1-yl)benzamide]	0.025 µM	–
Cc1ccc(CNS(C)(=O)=O)cc1C(=O)N[C@H](C)c1cc(-c2cnn(C)c2)nc2ccccc12 [Example 61]	0.046 µM	–
Cc1cc(CNC(=O)c2ncc[nH]2)ccc1C(=O)NC(C)c1cc(-c2cnn(C)c2)cc2ccccc12 (stereo not drawn) [Example 62, N-(3-methyl-4-((1-(3-(1-methyl-1H-pyrazol-4-yl)naphthalen-1-yl)ethyl)carbamoyl)benzyl)-1H-imidazole-2-carboxamide]	0.039 µM	–
COC(=O)/C=C/C(=O)NNC(=O)CCc1ccccc1C(=O)N[C@H](C)c1cc(-c2cnn(C)c2)nc2ccccc12 [Example 63, methyl(R,E)-4-(2-(3-(2-((1-(2-(1-methyl-1H-pyrazol-4-yl)quinolin-4-yl)ethyl)carbamoyl)phenyl)propanoyl)hydrazineyl)-4-oxobut-2-enoate]	0.003 µM	–
COC(=O)/C=C/C(=O)NNC(=O)CCc1ccccc1C(=O)NC(C)c1cc(-c2cnn(C)c2)cc2ccccc12 (stereo not drawn) [Example 64, methyl (E)-4-(2-(3-(2-((1-(3-(1-methyl-1H-pyrazol-4-yl)naphthalen-1-yl)ethyl)carbamoyl)phenyl)propanoyl)hydrazineyl)-4-oxobut-2-enoate]	0.005 µM	–
COC(=O)c1c[nH]c(-c2cc(C(C)NC(=O)c3cc(CN)ccc3C)c3ccccc3c2)c1 (stereo not drawn) [Example 70, methyl 5-(4-(1-(5-(aminomethyl)-2-methylbenzamido)ethyl)naphthalen-2-yl)-1H-pyrrole-3-carboxylate]	0.011 µM	–
CNC(=O)c1c[nH]c(-c2cc(C(C)NC(=O)c3cc(CN)ccc3C)c3ccccc3c2)c1 (stereo not drawn) [Example 71, 5-(4-(1-(5-(aminomethyl)-2-methylbenzamido)ethyl)naphthalen-2-yl)-N-methyl-1H-pyrrole-3-carboxamide]	0.016 µM	–
Cc1ccc(CN)cc1C(=O)NC(C)c1cc(-c2cc(C(=O)N(C)C)c[nH]2)cc2ccccc12 (stereo not drawn) [Example 72, 5-(4-(1-(5-(aminomethyl)-2-methylbenzamido)ethyl)naphthalen-2-yl)-N,N-dimethyl-1H-pyrrole-3-carboxamide]	0.013 µM	–
Cc1ccc(N2CCN(C)CC2)cc1C(=O)NC(C)c1cc(-c2cnn(C)c2)cc2ccccc12 (stereo not drawn) [Example 73, 2-methyl-N-(1-(3-(1-methyl-1H-pyrazol-4-yl)naphthalen-1-yl)ethyl)-5-(4-methylpiperazin-1-yl)benzamide]	0.022 µM	–
Cc1cc(CNCc2cscn2)ccc1C(=O)N[C@H](C)c1cc(-c2cnn(C)c2)nc2ccccc12 [Example 74, (R)-2-methyl-N-(1-(2-(1-methyl-1H-pyrazol-4-yl)quinolin-4-yl)ethyl)-4-(((thiazol-4-ylmethyl)amino)methyl)benzamide]	0.008 µM	–
Cc1ccc(CN)cc1C(=O)NC1(c2cc(-c3cnn(C)c3)cc3ccccc23)CC1 [Example 75, 5-(aminomethyl)-2-methyl-N-(1-(3-(1-methyl-1H-pyrazol-4-yl)naphthalen-1-yl)cyclopropyl)benzamide]	0.012 µM	–
Cc1ccccc1C(=O)NC(C)c1cc(-c2cn[nH]c2)nc2ccccc12 (stereo not drawn) [Example 101, 2-methyl-N-{1-[2-(1H-pyrazol-4-yl)quinolin-4-yl]ethyl}benzamide]	0.198 µM	–
Cc1ccccc1C(=O)NC(C)c1cc(-c2[nH]ncc2C)nc2ccccc12 (stereo not drawn) [Example 102]	0.904 µM	–
Cc1ccccc1C(=O)NC(C)c1cc(-c2csc(C#N)c2)nc2ccccc12 (stereo not drawn) [Example 103, N-{1-[2-(5-cyanothiophen-3-yl)quinolin-4-yl]ethyl}-2-methylbenzamide]	0.616 µM	–
Cc1ccccc1C(=O)NC(C)c1cc(-c2scc3c2OCCO3)nc2ccccc12 (stereo not drawn) [Example 104, N-{1-[2-(2,3-dihydrothieno [3,4-b][1,4]dioxin-5-yl)quinolin-4-yl]ethyl}-2-methylbenzamide]	10 µM	–
